Results published in ChEMBL document CHEMBL3217442, “Synthesis and bioevaluation of aryl hydroxamates distinguishing between NAD+ and ATP-dependent DNA ligases” (Medchemcomm, 2012).
Values after ≈ are worked out from the molar mass of the structure shown. Active and inactive are the calls of the source. The rule behind the calls is not given here.

System: Escherichia coli
Experiment: microbe, parasite or virus in culture
Assay type: functional
Conditions: GR501, 20 h

| SMILES | MIC [µg/mL] |
| --- | --- |
| O=C(NO)c1ccccc1OCC(O)Cn1cc(-c2ccccc2)nn1 (centres undefined) | 1 (≈ 2.82 µM) |
| C=CCOc1ccccc1C(=O)NO | 0.5 (≈ 2.59 µM) |

System: Escherichia coli
Experiment: microbe, parasite or virus in culture
Assay type: functional
Conditions: GR501, 20 h
Remark: another data set of the same source

| SMILES | MIC [µg/mL] |
| --- | --- |
| O=C(NO)c1ccc2ccccc2c1OCc1ccc(Cl)c(Cl)c1 | > 200 |
| C=CCOc1ccc(C(=O)NO)c(OCC=C)c1 | 400 (≈ 1600 µM) |
| O=C(NO)c1ccccc1OCC(O)Cn1cc(-c2ccccc2)nn1 (centres undefined) | 18 (≈ 50.8 µM) |
| C=CCOc1ccc(OCc2ccc(Br)cc2)cc1C(=O)NO | 800 (≈ 2120 µM) |
| C=CCOc1cc(OCc2ccc(Br)cc2)ccc1C(=O)NO | 800 (≈ 2120 µM) |
| C=CCOc1ccccc1C(=O)NO | 10 (≈ 51.8 µM) |
| C=CCOc1ccc(OCc2ccccc2)cc1C(=O)NO | 800 (≈ 2670 µM) |
| C=CCOc1ccc(OCC=C)c(C(=O)NO)c1 | 150 (≈ 602 µM) |
| C#CCOc1ccc(OCC=C)c(C(=O)NO)c1 | 400 (≈ 1620 µM) |
| C=CCOc1ccc(OCc2cc(Cl)ccc2Cl)cc1C(=O)NO | 400 (≈ 1090 µM) |
| CCCCCCOc1c(C(=O)NO)ccc2ccccc12 | > 200 |

System: Escherichia coli
Experiment: not given
Conditions: not given

| SMILES | MIC |
| --- | --- |
| C=CCOc1c(OCc2ccccc2)cccc1C(=O)NO | inactive |
| O=C(NO)c1ccccc1OCc1cccc(Cl)c1 | inactive |
| C=CCOc1cccc(C(=O)NO)c1OCC=C | inactive |
| O=C(NO)c1ccccc1OCc1ccc(Cl)c(Cl)c1 | inactive |
| C=CCOc1cc(OCc2cc(Cl)ccc2Cl)ccc1C(=O)NO | inactive |
| O=C(NO)c1ccc2ccccc2c1OCc1cccc(Cl)c1 | inactive |
